Entries after “also recorded” stand apart in the source; their conditions may differ. Where two headings read alike, the source gives them in different places.
What was measured:
P2Y6-R = target: T1, P2Y6-R (Homo sapiens, UniProt Q15077); experiment: [Ca2+]i increase in 1321N1 astrocytoma cells expressing P2Y6-R; format: cell-based; conditions: for EC50: 1321N1 astrocytoma cells, [Ca2+]i, read-out: Potencies (EC50) at the P2Y6-R; for Activity at the P2Y6-R (in words): 1321N1 cells
T1 construct: expressed in transfected cells; host or cells: 1321N1 astrocytoma cells
Procedure: (§1) Green fluorescent protein (GFP) constructs of human P2Y2-R, P2Y4-R and P2Y6-R were expressed in 1321N1 astrocytoma cells, which lack endogenous expression of P2X- and P2Y-receptors. The respective cDNA of the receptor gene was cloned into a pEGFPN1 vector. After transfection using FuGENE 6 Transfection Reagent (Roche Molecular Biochemicals, Mannheim, Germany), the cells were selected with 0.5 mg/ml G418 (geneticine; Merck Chemicals, Darmstadt, Germany) and grown in Dulbecco's modified Eagles' medium (DMEM) supplemented with 10% fetal calf serum, 100 U/ml penicillin and […] at 37° C. and 5% CO2. The expression and cell membrane localization of the respective P2Y receptors was confirmed through the analysis of the GFP fluorescence. The functionality of the expressed GFP-labeled receptor in cells was verified by recording a change of [Ca^2+]i after stimulation with the appropriate receptor agonist.
(§2) 1321N1 astrocytoma cells transfected with the respective plasmid for P2YR-GFP expression plated on coverslips (22 mm diameter) and grown to approximately 80% density were incubated with 2 μM fura 2/AM and 0.02% pluronic acid in Na-HBS buffer (Hepes buffered saline: 145 mM NaCl, 5.4 mM KCl, 1.8 mM CaCl2, 1 mM MgCl2, 25 mM glucose, 20 mM Hepes/Tris pH 7.4) for 30 min at 37° C. The cells were superfused (1 ml/min, 37° C.) with different concentrations of nucleotide in Na-HBS buffer, and the nucleotide-induced change of [Ca^2+]i was measured by detecting the respective emission intensity of fura 2/AM at 510 nm with after 340 nm and 380 nm excitations (Ubl et al., 1998). The average maximal amplitude of the responses and the respective standard errors were calculated from the ratio of the fura 2/AM fluorescence intensities with excitations at 340 nm and 380 nm (only MT-labeled cells were analysed). Microsoft Excel (Microsoft Corp., Redmond, Wash., USA) and SigmaPlot (SPSS Inc., Chicago, Ill., USA) were used to derive the concentration-response curves and EC50 values from the average response amplitudes obtained in at least three independent experiments (Ecke et al., 2006, 2008). Only cells with a clear MT-signal and with the typical calcium response kinetics upon agonist pulse application were included in the data analysis. The GFP-tagged P2Y receptors are suitable for pharmacological and physiological studies, as previously reported (Tulapurkar et al., 2004, 2006; Zylberg et al., 2007).
1321N1 cell lines stably expressing the human P2Y6 receptors were grown as previously described in DMEM (5% FBS, 100 IU/ml penicillin, 100 μg/ml streptomycin, 1× Glutamax, 10 mM Hepes and 0.5 mg/ml G-418) at 37° C. in a humidified atmosphere containing 5% CO2 and 95% air (Gendron et al., 2003).
1321N1 cells (10×10^6 cells grown in 10 cm^2 dishes) were harvested by a brief trypsin/EDTA treatment, suspended in complete culture medium, and washed by centrifugation for 3 min at 100×g before being incubated with 1 μM Fluo 4/AM in 4.5 ml HBSS with Ca^2+ and Mg^2+ (Wisent, St. Bruno, QC) for 25 min at 37° C. Cells were washed by centrifugation (100×g, 3 min), suspended in HBSS containing Ca^2+ and Mg^2+, and incubated for 25 min at 37° C. Cells were washed and suspended in 16 ml of FIBSS containing Ca^+ and Mg^2+. Cell suspension (2 ml) was gently stirred in a quartz cuvette while [Ca^2+]i and monitored on a RF-5301 PC Shimadzu spectrofluorometer with Panormama fluorescence 1.1 software (Man-Tech, Guelph, ON). Excitation wavelengths of 488 nm and emission wavelength of 520 nm were used to measure changes in intracellular Fluo 4 fluorescence intensity (F). At the end of each recording, maximal fluorescence (Fmax) and minimal fluorescence (Fmin) were determined by adding successively 0.1% Triton X-100 and 50 mM EDTA to cell suspensions. The following equation from Grynkiewicz et al. (1985) was used to relate the fluorescence intensity to Ca^2+ levels: [Ca^2+]=Kd×(F−Fmin)/(Fmax−F), wherein Kd is the Ca^+ dissociation constant of the indicator (345 nM). […]

P2Y2-R [1] = target: T2, P2Y2-R (Homo sapiens, UniProt P41231); experiment: [Ca2+]i increase in 1321N1 astrocytoma cells expressing P2Y2-R; format: cell-based; design: expressed in transfected cells; host or cells: 1321N1 astrocytoma cells
Procedure: as §1, §2
(§3) In this study, analogues 13-17 were tested for their potency and selectivity at P2Y2,4,6-receptors based on measurements of increases in intracellular calcium concentrations in 1321N1 astrocytoma cells transfected with the respective plasmid, as described in Materials and Methods, and the results are summarized in Table 2.

P2Y4-R = target: T3, P2Y4-R (Homo sapiens, UniProt P51582); experiment: [Ca2+]i increase in 1321N1 astrocytoma cells expressing P2Y4-R; format: cell-based; conditions: n.d.r = no detectable response up to 100 μM
T3 construct: expressed in transfected cells; host or cells: 1321N1 astrocytoma cells
Procedure: as §1, §2, §3

[2] = system: intraocular pressure in normotense rabbits; conditions: cited from earlier work
P2Y2 receptor = P2Y2 receptor (Rattus norvegicus, UniProt P41232); conditions: compared to ATP and UTP; Tulapurkar et al., 2004; cited from earlier work
physchem = conditions: for Rate constant of phosphate ester hydrolysis at pH 1.4: pH 1.4, 37° C., pseudo-first-order
Procedure: All stability experiments were performed in duplicates.
The stability of UDP, 11, 12 and 13A in a buffer solution (pH 1.4) was evaluated by ^31P NMR at 37° C. for monitoring possible dephosphorylation products (the signal of the phosphate hydrolysis products is at ˜0 ppm, while that of the borano phosphate analogues is at ˜85 ppm). NMR spectra were recorded on a Bruker DMX-600 spectrometer with a ^31P NMR probe (isotope frequency of 240 MHz) using 85% H3PO4 as an external reference.
Sodium salts of UDP, 11, 12 and 13A were dissolved in 0.45 ml of KCl/HCl buffer (pH 1.4) and D2O (0.05 ml) was added. The final pH was adjusted to pH 1.4. pH measurements were performed with an Metrohm pH electrode and a Metrohm 827 meter. Spectra were recorded at 15 min, 1 h, or 24 h time intervals at 37° C. For experiments that were several days long, the solution was kept in an oil bath at 37° C. and spectra were recorded at ca. 24 h time intervals. The phosphate ester hydrolysis rate was determined by measuring the change of the integration of one of the phosphates signals of the starting material with time.

P2Y2-R [3] = target: T2, P2Y2-R; conditions: Ginsburg-Shmuel et al., 2010; read-out: EC50 at P2Y2-R (literature); cited from earlier work
[4] = 1321N1 astrocytoma cells, [Ca2+]i, n.d.r = no detectable response up to 100 μM

T2 sequence (P41231 whole entry): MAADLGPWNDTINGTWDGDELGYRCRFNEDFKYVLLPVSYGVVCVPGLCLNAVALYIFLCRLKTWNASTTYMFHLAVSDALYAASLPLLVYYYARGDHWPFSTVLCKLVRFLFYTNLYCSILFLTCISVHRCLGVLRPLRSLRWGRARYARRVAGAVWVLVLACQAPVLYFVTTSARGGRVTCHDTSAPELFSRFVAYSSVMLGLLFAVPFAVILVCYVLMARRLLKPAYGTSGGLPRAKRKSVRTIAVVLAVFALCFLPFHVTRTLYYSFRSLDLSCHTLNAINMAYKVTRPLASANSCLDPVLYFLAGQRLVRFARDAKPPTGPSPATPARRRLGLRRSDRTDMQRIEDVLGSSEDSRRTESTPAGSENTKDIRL
T1 sequence (Q15077 whole entry): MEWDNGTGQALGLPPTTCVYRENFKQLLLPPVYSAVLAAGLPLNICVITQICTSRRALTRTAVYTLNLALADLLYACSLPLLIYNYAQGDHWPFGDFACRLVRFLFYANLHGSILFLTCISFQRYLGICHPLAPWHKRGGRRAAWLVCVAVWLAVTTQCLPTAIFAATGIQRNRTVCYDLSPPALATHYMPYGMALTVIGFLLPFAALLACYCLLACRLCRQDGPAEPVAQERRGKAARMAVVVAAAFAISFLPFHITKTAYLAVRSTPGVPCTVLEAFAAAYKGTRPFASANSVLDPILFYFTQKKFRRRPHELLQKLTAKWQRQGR
T3 sequence (P51582 whole entry): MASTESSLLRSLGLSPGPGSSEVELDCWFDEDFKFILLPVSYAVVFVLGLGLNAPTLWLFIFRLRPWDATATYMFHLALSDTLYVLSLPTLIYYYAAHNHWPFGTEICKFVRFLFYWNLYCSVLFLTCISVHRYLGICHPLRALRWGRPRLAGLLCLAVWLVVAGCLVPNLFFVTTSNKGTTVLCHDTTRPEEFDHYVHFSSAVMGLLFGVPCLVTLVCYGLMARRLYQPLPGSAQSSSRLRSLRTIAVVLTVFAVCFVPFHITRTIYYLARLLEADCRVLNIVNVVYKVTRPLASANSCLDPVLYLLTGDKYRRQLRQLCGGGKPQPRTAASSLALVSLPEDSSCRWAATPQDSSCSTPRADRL
Chain of P2Y2 receptor (P41232 whole entry): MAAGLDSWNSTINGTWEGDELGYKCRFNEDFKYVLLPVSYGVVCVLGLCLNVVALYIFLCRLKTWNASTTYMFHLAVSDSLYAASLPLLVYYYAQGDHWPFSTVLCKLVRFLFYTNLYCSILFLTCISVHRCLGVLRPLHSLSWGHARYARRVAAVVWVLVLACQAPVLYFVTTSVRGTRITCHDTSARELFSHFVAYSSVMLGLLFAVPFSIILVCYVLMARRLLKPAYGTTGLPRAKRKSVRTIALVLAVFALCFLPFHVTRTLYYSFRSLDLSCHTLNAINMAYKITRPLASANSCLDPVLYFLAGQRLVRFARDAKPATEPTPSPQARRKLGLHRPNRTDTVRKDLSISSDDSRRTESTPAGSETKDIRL

SMILES | EC50 (P2Y6-R) [µM] | Potencies (EC50) at the P2Y2-R (P2Y2-R [1]; [4]) | Potencies (EC50) at the P2Y4-R (P2Y4-R) | also measured
[BH3-][P+](O)(OCC1OC(n2cc(OC)c(=O)[nH]c2=O)C(O)C1O)OP(=O)(O)O (single isomer, unassigned) [Analogue 13B, 5-methoxyuridine-5′-O-(α-boranodiphosphate)] | 4.3 | n.d.r | n.d.r | –
[BH3-][P+](O)(OC[C@H]1O[C@@H](n2cc(OC)c(=O)[nH]c2=O)[C@H](O)[C@@H]1O)OP(=O)(O)OP(=O)(O)O (single isomer, unassigned) [Analogue 14A, 5-methoxyuridine-5′-O-(α-boranotriphosphate)] | 11.2 ± 0.63 | n.d.r | n.d.r | –
[BH3-][P+](O)(OC[C@H]1O[C@@H](n2cc(OC)c(=O)[nH]c2=O)[C@H](O)[C@@H]1O)OP(=O)(O)OP(=O)(O)O (single isomer, unassigned) [Analogue 14B, 5-methoxyuridine-5′-O-(α-boranotriphosphate)] | 20.1 ± 0.7 | n.d.r | n.d.r | –
[BH3-][P+](O)(OCC1OC(n2cc(OC)c(=O)[nH]c2=O)C(O)C1O)OP(=O)(O)OP(=O)(O)OCC1OC(n2cc(OC)c(=O)[nH]c2=O)C(O)C1O (single isomer, unassigned) [Analogue 16A, di-(5-OMe)-uridine 5′,5″-P^1,P^3,α-boranotriphosphate] | 0.06 | n.d.r | n.d.r | Less potent than mono-nucleotide counterpart 13A at P2Y6-R (P2Y6-R; ratio of EC50 values): about 9 times
[BH3-][P+](O)(OCC1OC(n2cc(OC)c(=O)[nH]c2=O)C(O)C1O)OP(=O)(O)OP(=O)(O)OCC1OC(n2cc(OC)c(=O)[nH]c2=O)C(O)C1O (single isomer, unassigned) [Analogue 16B, di-(5-OMe)-uridine 5′,5″-P^1,P^3,α-boranotriphosphate] | 2.2 | n.d.r | n.d.r | –
CSc1nc(N)c2ncn([C@@H]3O[C@H](COP(=O)(O)OP(=O)(O)C(Cl)(Cl)P(=O)(O)O)[C@@H](O)[C@H]3O)c2n1 [2MeS-adenosine-β,γ-CCl2-5′-triphosphate] | – | – | – | Duration of effect on IOP (literature) [2]: about 5 hours; Reduction of IOP (literature) [2]: 32%; EC50 ([2]; read-out: EC50 of IOP reduction (literature)): 0.0955 µM
BP(=O)(OC[C@H]1O[C@@H](n2cnc3c(N)ncnc32)[C@H](O)[C@@H]1O)OP(=O)(O)OP(=O)(O)O (stereo partly drawn) [ATP(α-B)] | – | – | – | Response at the P2Y2 receptor (in words, literature) (P2Y2 receptor): very weak response
[BH3-][P+](O)(OC[C@H]1O[C@@H](n2ccc(=O)[nH]c2=O)[C@H](O)[C@@H]1O)OP(=O)(O)O (stereo partly drawn) [Analogue 11, Uridine-5′-O-(α-boranodiphophate), reference compound] | – | – | – | Half-life in human blood serum: 21 h; Rate constant of phosphate ester hydrolysis at pH 1.4 (physchem): 1.14×10^−5 s^−1
BP(=O)(OCC1OC(n2cc(OC)c(=O)[nH]c2=O)C(O)C1O)OP(=O)(O)O (stereo not drawn) [Analogue 13, 5-methoxyuridine-5′-O-(α-boranodiphosphate)] | – | – | – | Half-life (t1/2) of hydrolysis at pH 1.4 (physchem; buffer, pH 1.4): 16.9 h; Rate constant of phosphate ester hydrolysis at pH 1.4 (physchem): 1.31×10^−5 s^−1
BP(=O)(OC[C@H]1O[C@@H](n2cc(OC)c(=O)[nH]c2=O)[C@H](O)[C@@H]1O)OP(=O)(O)OP(=O)(O)O (stereo partly drawn) [Analogue 14, 5-methoxyuridine-5′-O-(α-boranotriphosphate)] | – | – | – | Activity at the P2Y6-R (in words) (P2Y6-R): hardly active; Activity at the P2Y2-receptor (in words) (P2Y2-R [1]; 1321N1 cells): completely inactive
COc1cn([C@@H]2O[C@H](COP(=O)(O)OP(=O)(O)OP(=O)(O)OC[C@H]3O[C@@H](n4cc(OC)c(=O)[nH]c4=O)[C@H](O)[C@@H]3O)[C@@H](O)[C@H]2O)c(=O)[nH]c1=O [Analogue 15, di-(5-OMe)-uridine 5′,5″-P^1,P^3, triphosphate] | > 10 | n.d.r | n.d.r | Activity at the P2Y6-R (in words) (P2Y6-R): least active P2Y6-R agonist; also recorded: weakest potency among the tested nucleotides
[BH3-][P+](O)(OP(=O)(O)OC[C@H]1O[C@@H](n2cc(OC)c(=O)[nH]c2=O)[C@H](O)[C@@H]1O)OP(=O)(O)OC[C@H]1O[C@@H](n2cc(OC)c(=O)[nH]c2=O)[C@H](O)[C@@H]1O [Analogue 17, di-(5-OMe)-uridine 5″5″-P^1,P^3,β-boranotriphosphate] | 0.2 | n.d.r | n.d.r | –
O=c1ccn([C@@H]2O[C@H](COP(=O)(O)OP(=O)(O)OP(=O)(O)O)[C@@H](O)[C@H]2O)c(=O)[nH]1 [UTP, reference compound] | – | – | – | EC50 (P2Y2-R [1]; 1321N1 astrocytoma cells, [Ca2+]i, n.d.r = no detectable response up to 100 μM, read-out: Potencies (EC50) at the P2Y2-R): 0.14 µM; EC50 (P2Y2-R [3]): 0.1 µM; EC50 (P2Y4-R; read-out: Potencies (EC50) at the P2Y4-R): 0.9 µM
